Measured values taken from ChEMBL document CHEMBL4613326 (J Med Chem, 2020).
Blank lines part the entries; values can stand above or below the compound they belong to. Activity calls are given as the source filed them. The rule behind the calls is not given here.

What was measured:
Mus musculus [1] = assay: (§1) Protection against lung fibrosis in C57BL/6 mouse model of bleomycin sulfate-induced idiopathic pulmonary fibrosis assessed as induction of body weight recovery at 60 mg/kg, po dosed once daily for 31 days followed by bleomycin sulfate challenge on day 3; format: functional, organism-based
Mus musculus [2] = assay: as §1, with “induction of improvement in lung texture at 60” for “induction of body weight recovery at 60”, “day 3 by hematoxylin and eosin staining based assay” for “day 3”; format: functional, organism-based
Mus musculus [3] = assay: (§2) Ex-vivo inhibition of ATX lysoPLD activity in lung homogenate isolated from C57BL/6 mouse model of bleomycin sulfate-induced idiopathic pulmonary fibrosis assessed absorbance for artificial substrate FS-3 cleavage at 60 mg/kg, po dosed once daily for 31 days followed by bleomycin sulfate challenge on day 3 by fluorescence based assay; format: functional
Autotaxin [4] = biological target: T1, Autotaxin (Homo sapiens, UniProt Q13822); assay: Inhibition of human ATX pre-incubated for 45 mins before fluorogenic substrate-3 addition and measured every minute for 30 mins by fluorescence based assay
Mus musculus [5] = assay: Protection against lung fibrosis in C57BL/6 mouse model of bleomycin sulfate-induced idiopathic pulmonary fibrosis assessed as induction of body weight recovery at 20 mg/kg, po dosed once daily for 31 days followed by bleomycin sulfate challenge on day 3; format: functional, organism-based
Mus musculus [6] = assay: as §2, with “cleavage at 20 to 60 mg/kg,” for “cleavage at 60 mg/kg,”; format: functional, organism-based
Mus musculus [7] = assay: (§3) Protection against lung fibrosis in C57BL/6 mouse model of bleomycin sulfate-induced idiopathic pulmonary fibrosis assessed as induction of improvement in lung texture by measuring modified Ashcroft score level at 60 mg/kg, po dosed once daily for 31 days followed by bleomycin sulfate challenge on day 3 by Masson staining based assay; format: functional
Mus musculus [8] = assay: as §2, with “20” for “60”; format: functional
Mus musculus [9] = assay: as §3, with “texture” for “texture by measuring modified Ashcroft score level”, “20” for “60”, “hematoxylin and eosin” for “Masson”; format: functional, organism-based
Mus musculus [10] = assay: as §3, with “histopathological changes” for “lung texture”, “hematoxylin and eosin” for “Masson”, “assay (reference value: 6.28)” for “assay”; format: functional
Mus musculus [11] = assay: Protection against lung fibrosis in C57BL/6 mouse model of bleomycin sulfate-induced idiopathic pulmonary fibrosis assessed as induction of improvement in lung texture at 20 to 60 mg/kg, po dosed once daily for 31 days followed by bleomycin sulfate challenge on day 3 by hematoxylin and eosin staining based assay; format: functional, organism-based
Mus musculus [12] = assay: as §3, with “histopathological changes” for “lung texture”, “20” for “60”, “hematoxylin and eosin” for “Masson”, “assay (reference value: 6.28)” for “assay”; format: functional
Autotaxin [13] = biological target: T1, Autotaxin
Description: Inhibition of human ATX by LPC choline release assay

- IC50 (Autotaxin [4]): 1320 nM
Compound: CCn1cc(C(=O)N/N=C/c2ccc3c(c2)OCO3)c2cc(-c3nc(CN4CCN(CCO)CC4)cs3)ccc21

- IC50 (Autotaxin [4]): 1350 nM
Compound: CCN1CCN(Cc2csc(-c3ccc4c(c3)c(C(=O)N/N=C/c3ccc(F)cc3)cn4CC)n2)CC1

- IC50 (Autotaxin [4]): 0.43 nM
Compound: CCn1cc(NC(=O)OCc2cc(Cl)cc(Cl)c2)c2cc(-c3nc(CN4CCN(CCO)CC4)cs3)ccc21
- Activity (Mus musculus [5]): Active
- inhibition (Mus musculus [6]): Dose-dependent effect
- Activity (Mus musculus [1]): Active
- Activity_index (Mus musculus [7]): 2.01
- Activity (Mus musculus [3]): 3.25 a.u.
- Activity (Mus musculus [8]): 3.43 a.u.
- Activity (Mus musculus [9]): Active
- Activity_index (Mus musculus [10]): 2.04

- IC50 (Autotaxin [4]): 1550 nM
Compound: CCn1cc(C(=O)N/N=C/c2ccc3c(c2)OCO3)c2cc(-c3nc(CN4CCCCC4)cs3)ccc21

- IC50 (Autotaxin [4]): 1590 nM
Compound: CCN1CCN(Cc2csc(-c3ccc4c(c3)c(C(=O)N/N=C(\C)c3ccc(F)cc3)cn4CC)n2)CC1

- IC50 (Autotaxin [4]): 231 nM
Compound: CCn1cc(C(=O)N/N=C/c2ccc(Cl)cc2)c2cc(-c3nc(CN4CCN(CCO)CC4)cs3)ccc21

- IC50 (Autotaxin [4]): > 10000 nM
Compound: CCn1cc(C(=O)N/N=C/c2ccc3c(c2)OCO3)c2cc(-c3nc(CN4CCC(C)CC4)cs3)ccc21

- IC50 (Autotaxin [4]): 1460 nM
Compound: CCn1cc(C(=O)N/N=C/c2ccc(OC)cc2)c2cc(-c3nc(CN4CCCCC4)cs3)ccc21

- IC50 (Autotaxin [4]): 107 nM
Compound: CCn1cc(C(=O)N/N=C/c2ccc3c(c2)OCO3)c2cc(-c3nc(CN4CCC(O)CC4)cs3)ccc21

- IC50 (Autotaxin [4]): 655 nM
Compound: CCn1cc(C(=O)N/N=C/c2ccc(F)cc2)c2cc(-c3nc(CN4CCC[C@H]4CO)cs3)ccc21

- IC50 (Autotaxin [4]): 1370 nM
Compound: CCn1cc(C(=O)N/N=C/c2ccc(F)cc2)c2cc(-c3nc(CN4CCOCC4)cs3)ccc21

- IC50 (Autotaxin [4]): 117 nM
Compound: CCn1cc(NC(=O)O[C@H](C)c2ccc(C)cc2)c2cc(-c3nc(CN4CCC(O)CC4)cs3)ccc21

- IC50 (Autotaxin [4]): 508 nM
Compound: CCn1cc(C(=O)N/N=C(\C)c2ccc(F)cc2)c2cc(-c3nc(CN4CCN(CCO)CC4)cs3)ccc21

- IC50 (Autotaxin [4]): 69.4 nM
Compound: CCn1cc(C(=O)N/N=C(\C)c2ccc(F)cc2)c2cc(-c3nc(CN4CCC(O)CC4)cs3)ccc21

- IC50 (Autotaxin [4]): 2530 nM
Compound: CCn1cc(C(=O)N/N=C(\C)c2ccc(F)cc2)c2cc(-c3nc(CN4CCN(C)CC4)cs3)ccc21

- IC50 (Autotaxin [4]): 1840 nM
Compound: CCn1cc(C(=O)N/N=C(\C)c2ccc(F)cc2)c2cc(-c3nc(CN4CCOCC4)cs3)ccc21

- IC50 (Autotaxin [4]): 127 nM
Compound: CCn1cc(NC(=O)OCc2cccc(Cl)c2Cl)c2cc(-c3nc(CN4CCC(O)CC4)cs3)ccc21

- IC50 (Autotaxin [4]): > 10000 nM
Compound: CCn1cc(C(=O)N/N=C/c2ccc(OC)cc2)c2cc(-c3nc(CN4CCOCC4)cs3)ccc21

- IC50 (Autotaxin [4]): 3960 nM
Compound: CCn1cc(C(=O)N/N=C/c2ccc(F)cc2)c2cc(-c3nc(CN4CCCCC4)cs3)ccc21

- IC50 (Autotaxin [4]): 5240 nM
Compound: CN1CCN(Cc2csc(-c3ccc4c(c3)c(C(=O)N/N=C/c3ccc(F)cc3)cn4C)n2)CC1

- IC50 (Autotaxin [4]): > 10000 nM
Compound: Cn1cc(C(=O)N/N=C/c2ccc(Cl)cc2)c2cc(-c3nc(CN4CCOCC4)cs3)ccc21

- IC50 (Autotaxin [4]): 1170 nM
Compound: CCn1cc(C(=O)N/N=C/c2ccc(Cl)cc2)c2cc(-c3nc(CN4CCCC4)cs3)ccc21

- IC50 (Autotaxin [4]): > 10000 nM
Compound: CCn1cc(C(=O)N/N=C/c2ccc3c(c2)OCO3)c2cc(-c3nc(CN4CCOCC4)cs3)ccc21

The remaining lines, values behind:

Compound: CCc1nc2c(C)cc(N3CCN(CC(=O)N4CC(O)C4)CC3)cn2c1N(C)c1nc(-c2ccc(F)cc2)c(C#N)s1 [ZIRITAXESTAT]
- Activity (Mus musculus [1]): Active
- Activity (Mus musculus [2]): Active
- Activity (Mus musculus [3]): 4.03 a.u.

Compound: CCn1cc(C(=O)N/N=C/c2ccc(Cl)cc2)c2cc(-c3nc(CN4CCC(O)CC4)cs3)ccc21
- IC50 (Autotaxin [4]): 180 nM

Compound: CCn1cc(NC(=O)OCc2ccc(F)c(F)c2)c2cc(-c3nc(CN4CCC(O)CC4)cs3)ccc21
- Activity (Mus musculus [11]): Dose-dependent effect
- Activity_index (Mus musculus [12]): 4.66
- Activity (Mus musculus [5]): Active
- inhibition (Mus musculus [6]): Dose-dependent effect
- IC50 (Autotaxin [4]): 1.01 nM
- Activity (Mus musculus [1]): Active
- Activity (Mus musculus [3]): 3.37 a.u.
- Activity (Mus musculus [8]): 3.85 a.u.
- Activity (Mus musculus [9]): Active
- Activity_index (Mus musculus [10]): 3.2

Compound: CCn1cc(C(=O)N/N=C/c2ccc3c(c2)OCO3)c2cc(-c3nc(CN4CCN(C)CC4)cs3)ccc21
- IC50 (Autotaxin [4]): 757 nM

Compound: CCn1cc(C(=O)N/N=C/c2ccc(F)cc2)c2cc(-c3nc(CN4CCN(CCO)CC4)cs3)ccc21
- IC50 (Autotaxin [4]): 135 nM

Compound: C/C(=N\NC(=O)c1cn(C)c2ccc(-c3nc(CN4CCN(C)CC4)cs3)cc12)c1ccc(F)cc1
- IC50 (Autotaxin [4]): > 10000 nM

Compound: CCn1cc(NC(=O)OCc2ccc3c(c2)OCO3)c2cc(-c3nc(CN(CCO)CCO)cs3)ccc21
- IC50 (Autotaxin [4]): 30.7 nM

Compound: CCn1cc(NC(=O)O[C@H](C)c2ccccc2Cl)c2cc(-c3nc(CN4CCC[C@H]4CO)cs3)ccc21
- IC50 (Autotaxin [4]): 199 nM

Compound: CCn1cc(C(=O)N/N=C/c2ccc3c(c2)OCO3)c2cc(-c3nc(CN4CCC[C@H]4CO)cs3)ccc21
- IC50 (Autotaxin [4]): 610 nM

Compound: CN1CCN(Cc2csc(-c3ccc4c(c3)c(C(=O)N/N=C/c3ccc5c(c3)OCO5)cn4C)n2)CC1
- IC50 (Autotaxin [4]): 879 nM

Compound: CCN1CCN(Cc2csc(-c3ccc4c(c3)c(C(=O)N/N=C/c3ccc(Cl)cc3)cn4CC)n2)CC1
- IC50 (Autotaxin [4]): 2310 nM

Compound: CCn1cc(C(=O)N/N=C/c2ccc(F)cc2)c2cc(-c3nc(CN4CCC(O)CC4)cs3)ccc21
- IC50 (Autotaxin [4]): 906 nM

Compound: Cn1cc(C(=O)N/N=C/c2ccc(F)cc2)c2cc(-c3nc(CN4CCOCC4)cs3)ccc21
- IC50 (Autotaxin [4]): 2870 nM

Compound: CCn1cc(NC(=O)O[C@H](C)c2ccc(C)cc2)c2cc(-c3nc(CN4CCC[C@H]4CO)cs3)ccc21
- IC50 (Autotaxin [4]): 36.9 nM

Compound: CCn1cc(NC(=O)OCc2cc(Cl)cc(Cl)c2)c2cc(-c3nc(CN(CCO)CCO)cs3)ccc21
- IC50 (Autotaxin [4]): 21.3 nM

Compound: CCn1cc(NC(=O)OCc2ccccc2)c2cc(-c3nc(CN4CCC[C@H]4CO)cs3)ccc21
- IC50 (Autotaxin [4]): 122 nM

Compound: CCn1cc(C(=O)N/N=C(\C)c2ccc(F)cc2)c2cc(-c3nc(CN4CCC[C@H]4CO)cs3)ccc21
- IC50 (Autotaxin [4]): 15.7 nM

Compound: CCn1cc(C(=O)N/N=C(\C)c2ccc(F)cc2)c2cc(-c3nc(CN4CCCC4)cs3)ccc21
- IC50 (Autotaxin [4]): 2740 nM

Compound: CN(C)Cc1csc(-c2ccc3[nH]cc(C(=O)O)c3c2)n1
- IC50 (Autotaxin [4]): 740 nM

Compound: CCn1cc(NC(=O)OCc2ccc3c(c2)OCO3)c2cc(-c3nc(CN4CCC[C@H]4CO)cs3)ccc21
- IC50 (Autotaxin [4]): 34.7 nM

Compound: CCn1cc(NC(=O)OCc2ccc3c(c2)OCO3)c2cc(-c3nc(CN4CCC(O)CC4)cs3)ccc21
- IC50 (Autotaxin [4]): 34.1 nM

Compound: CCn1cc(NC(=O)OCc2ccccc2)c2cc(-c3nc(CN4CCC(O)CC4)cs3)ccc21
- IC50 (Autotaxin [4]): 970 nM

Compound: CCn1cc(NC(=O)OCc2cc(Cl)cc(Cl)c2)c2cc(-c3nc(CN4CCC(O)CC4)cs3)ccc21
- IC50 (Autotaxin [4]): 613 nM

Compound: CCn1cc(C(=O)N/N=C/c2ccc(F)cc2)c2cc(-c3nc(CN4CCC(C)CC4)cs3)ccc21
- IC50 (Autotaxin [4]): > 10000 nM

Compound: CCn1cc(NC(=O)OCc2cccc(Cl)c2Cl)c2cc(-c3nc(CN4CCN(CCO)CC4)cs3)ccc21
- IC50 (Autotaxin [4]): 62.7 nM

Compound: Cn1cc(C(=O)N/N=C/c2ccc3c(c2)OCO3)c2cc(-c3nc(CN4CCOCC4)cs3)ccc21
- IC50 (Autotaxin [4]): > 10000 nM

Compound: CCn1cc(NC(=O)OCc2ccc(F)c(F)c2)c2cc(-c3nc(CN4CCC[C@H]4CO)cs3)ccc21
- IC50 (Autotaxin [4]): 297 nM

Compound: CCn1cc(NC(=O)O[C@H](C)c2ccccc2Cl)c2cc(-c3nc(CN4CCC(O)CC4)cs3)ccc21
- IC50 (Autotaxin [4]): 210 nM

Compound: CCCC[C@@H](CCCC(=O)NO)NC(=O)CCCCC(=O)Nc1ccccc1
- IC50 (Autotaxin [13]): 60 nM
